Results as given in PMC2861366 (Biochemistry, 2010).
“Also recorded” adds a separate entry of the source.

What was measured:
[1] = test system: χ subunit of DNA polymerase III holoenzyme; assay: ITC binding to χ subunit; design: species or system E. coli; details: 25°C; for K, observed association equilibrium constant: buffer C (10 mM cacodylate, pH 7.0, 25% glycerol), 20 mM NaCl
PriA helicase = assay: ITC binding to PriA helicase; design: species or system E. coli; details: 25°C; for binding detected by ITC (in words): 0.2 M NaCl, same protein and peptide concentrations as with WP9
[2] = test system: χ subunit of DNA polymerase III holoenzyme; details: SSB prebound to ssDNA, low salt (5mM NaCl); cited from earlier work
[3] = buffer C (10 mM cacodylate, pH 7.0, 25% glycerol), 20 mM NaCl
[4] = buffer C, pH 7.0, 200 mM NaCl, WP9: averaged from two titrations
[5] = buffer T (10 mM Tris, pH 7.5, 10% glycerol), 20 mM NaCl

Row | Substance | binding detected by ITC (in words) ([1]; 0.2 M NaCl, buffer C) | binding detected by ITC (in words) (PriA helicase; buffer C) | K, observed association equilibrium constant [1] | K, observed association equilibrium constant (PriA helicase; [3]) | K, observed association equilibrium constant (PriA helicase; [4]) | K, observed association equilibrium constant (PriA helicase; [5]) | further results
1 | WMDFDDDISF [WP9-113] | No binding can be detected | No binding can be detected | – | – | – | – | –
2 | WDFMDDPFID [WP9r] | No binding can be detected | No binding can be detected | – | – | – | – | –
3 | WP9: modified P9 peptide containing a Trp residue on the N terminal side (WMDFDDDIPF) | – | – | (1.2±0.1)×10^6 M^−1 | (1.6±0.2)×10^6 M^−1 | (2.3±0.3)×10^5 M^−1 | – | –
4 | MDFDDDIPF [P9] | – | – | (1.6±0.4)×10^6 M^−1 | – | (1.8±0.6)×10^5 M^−1 | (2.0±0.3)×10^6 M^−1 | –
5 | SSB: E. coli single stranded DNA binding protein, homotetramer | – | – | – | – | – | – | binding detected by ITC (in words) ([1]; 0.02 M NaCl): too weak to determine its binding parameters; also recorded: Weak (see text); affinity of χ for SSB in the presence of ssDNA [2]: (7.4±1.0)×10^6 M^−1
6 | PSNEPPMDFDDDIPF [P15] | – | – | (1.5±0.2)×10^6 M^−1 | (2.7±0.2)×10^6 M^−1 | (3.6±0.2)×10^5 M^−1 | (1.6±0.4)×10^6 M^−1 | –
